Starred links: 1 amine or outer side, 2 acyl side, 3 side chain; linkers in the order of their positions; H or OH if unused. Positions of bridges follow the written chain, without caps; N, C: chain ends. Non-standard residues stand in square brackets, D forms with d. Residues, ends and D or L forms follow the SMILES beside them. Groups on a side chain read outwards from the residue. *: point of attachment. CH3O(CH2CH2O)11CH2CH2CO = COCCOCCOCCOCCOCCOCCOCCOCCOCCOCCOCCOCCC(=O)*; PEG12 = NCCOCCOCCOCCOCCOCCOCCOCCOCCOCCOCCOCCOCCC(=O)O; Ala(1H-tetrazol-5-yl) = N[C@@H](Cc1nnn[nH]1)C(=O)O; C18 diacid = O=C(O)CCCCCCCCCCCCCCCCC(=O)*; Dip = N[C@H](C(=O)O)C(c1ccccc1)c1ccccc1; γGlu = O=C(O)[C@H](CCC(=O)[*:2])N[*:1]; Palmitoyl = CCCCCCCCCCCCCCCC(=O)*; β3hF = N[C@H](CC(=O)O)Cc1ccccc1; Isovaleryl = CC(C)CC(=O)*; AEEA = NCCOCCOCC(=O)O; X4 = O=C(CCC(F)(F)F)*; Ahx = NCCCCCC(=O)O

In test [1] the target is T1, ferroportin (Homo sapiens, UniProt Q9NP59).
T1 sequence (Q9NP59 1-571): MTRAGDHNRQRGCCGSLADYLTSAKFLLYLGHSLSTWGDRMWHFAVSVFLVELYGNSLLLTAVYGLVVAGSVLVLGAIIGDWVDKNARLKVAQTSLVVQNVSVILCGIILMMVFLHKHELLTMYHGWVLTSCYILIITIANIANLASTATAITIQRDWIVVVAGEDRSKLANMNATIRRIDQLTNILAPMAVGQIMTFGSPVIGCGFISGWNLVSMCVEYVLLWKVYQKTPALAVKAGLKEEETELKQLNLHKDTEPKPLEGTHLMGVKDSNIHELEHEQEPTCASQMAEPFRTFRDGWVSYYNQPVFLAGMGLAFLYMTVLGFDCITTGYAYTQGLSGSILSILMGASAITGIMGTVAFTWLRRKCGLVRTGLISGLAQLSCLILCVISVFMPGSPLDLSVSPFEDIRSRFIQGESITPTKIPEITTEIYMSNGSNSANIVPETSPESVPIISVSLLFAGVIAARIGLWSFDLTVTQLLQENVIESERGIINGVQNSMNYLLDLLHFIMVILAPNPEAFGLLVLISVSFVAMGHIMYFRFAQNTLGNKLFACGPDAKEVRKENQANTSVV
Put plainly: FPN activity assay: internalization/degradation of ferroportin-GFP in stably transfected HEK293 cells, decrease in GFP fluorescence. The class given is cell-based. The following applies: HEK293 cells stably expressing ferroportin-GFP, at least 18 hours incubation; read-out: FPN EC50. Further details: expressed in transfected cells.

Test [2] addresses T1, ferroportin. As to the kind of experiment: T47D cell-based ferroportin internalization assay in presence of 0.5% mouse serum albumin (MSA), AF647-conjugated detection peptide, flow cytometry. Further details: a human breast carcinoma adherent cell line which endogenously expresses ferroportin; host or cells: T47D. The following applies: T47D cells, 1 hr incubation. The procedure: The potency of the peptides in causing ferroportin internalization was evaluated in a T47D cell-based assay. […] In this internalization assay, the potency of the test peptides was evaluated in presence of serum albumin which is the main protein component in the blood. T47D cells were maintained in RPMI media (containing required amount of fetal bovine serum) and regularly sub-cultured. In preparation for the assay, the cells were seeded in 96-well plates at a density of 80-100 k cells per well in 100 ul volume and allowed to rest overnight. On the next day, test peptides were first prepared in dilution series (10-point series, starting concentration of ˜5 μM, typically 3-4×fold dilution steps), all with 0.5% mouse serum albumin (MSA purified from mouse serum; Sigma, A3139). The test peptide dilution series were allowed to incubate at room temperature for 30 min. Then the media was aspirated from the 96-well cell plate and test peptide dilution series were added. After 1 hr incubation, the media with test peptides was aspirated out and AF647-conjugated detection peptide was added at fixed concentration of 200 nM. The AF647-conjugated detection peptide was previously verified to bind to ferroportin and cause its internalization. The cells were washed again after a 2 hr incubation in preparation for flow cytometry analysis. The Median Fluorescence Intensity (MFI) of the AF647-positive population was measured (after removing dead cells and non-singlets from the analysis). The MFI values were used to generate a dose-response curve and obtain IC50 potencies for the test peptides. The IC50 potencies were calculated by using 4-parameter non-linear fitting function in Graphpad Prism (Table 2A).
For orientation: In flow cytometry, cells or beads pass a laser one at a time.

For orientation: IC50 means the concentration that inhibits the measured activity by half. Take `CCCCCCCCCCCCCCCC(=O)NCCCCCC(=O)NCCCC[C@@H]1NC(=O)C[C@H](Cc2ccccc2)NC(=O)[C@@H](CCCCNC(=O)CCOCCOCCOCCOCCOCCOCCOCCOCCOCCOCCOCCOC)NC(=O)[C@H]([C@@H](C)CC)NC(=O)[C@@H](NC(=O)[C@@H]2CCCN2C(=O)[C@@H](NC(=O)[C@H](Cc2c[nH]cn2)NC(=O)[C@@H](NC(=O)[C@H](Cc2nn[nH]n2)NC(=O)CC(C)C)[C@@H](C)O)C(c2ccccc2)c2ccccc2)CSSC[C@@H](C(N)=O)NC(=O)[C@@H](CCCCNC(=O)CCOCCOCCOCCOCCOCCOCCOCCOCCOCCOCCOCCOC)NC1=O` [Compd 50, Isovaleric Acid-[Tet1]-T-H-[Dpa]-P-[Cys]-I-[(DLys(PEG11_OMe-[bhPhe]-[Lys(Ahx_Palm)]-[(D)Lys(PEG11_OMe)]-[Cys]-NH2] (Isovaleryl-[Ala(1H-tetrazol-5-yl)]TH[Dip]PCI[dK](CH3O(CH2CH2O)11CH2CH2CO)[β3hF]K([Ahx-Palmitoyl])[dK](CH3O(CH2CH2O)11CH2CH2CO)C-NH2; disulfide 6-12): the DC50 at ferroportin [1] fell in the range of 0.01 to 0.1 µM. Further, the IC50 on ferroportin [2] lay in the range of 0.001 to 0.01 µM.
Take `CC[C@H](C)[C@@H]1NC(=O)[C@@H](NC(=O)[C@@H]2CCCN2C(=O)[C@@H](NC(=O)[C@H](Cc2c[nH]cn2)NC(=O)[C@@H](NC(=O)[C@H](Cc2nn[nH]n2)NC(=O)CC(C)C(F)(F)F)[C@@H](C)O)C(c2ccccc2)c2ccccc2)CSSC[C@@H](C(N)=O)NC(=O)[C@@H](CCCCN)NC(=O)C[C@H](Cc2ccccc2)NC(=O)[C@H](CCCCNC(=O)COCCOCCNC(=O)COCCOCCNC(=O)CC[C@H](NC(=O)CCCCCCCCCCCCCCCCC(=O)O)C(=O)O)NC1=O` (stereo partly drawn) [Compd 45, Butyric_Acid_3CF3-[Tet1]-T-H-[Dpa]-P-[Cys]-I-[Lys(1PEG2_1PEG2_IsoGlu_C18_Diacid)]-[bhPhe]-[(D)Lys]-[Cys]-NH2]: the DC50 on ferroportin [1] was 0.01 to 0.1 µM. The IC50 at ferroportin [2] lay in the range of 0.1 to 0.5 µM.
Taken in the same sequence, the figures for `CC[C@H](C)[C@@H]1NC(=O)[C@@H](NC(=O)[C@@H]2CCCN2C(=O)[C@@H](NC(=O)[C@H](Cc2c[nH]cn2)NC(=O)[C@@H](NC(=O)[C@H](Cc2nn[nH]n2)NC(=O)CCC(F)(F)F)[C@@H](C)O)C(c2ccccc2)c2ccccc2)CSSC[C@@H](C(N)=O)NC(=O)[C@@H](CCCCN)NC(=O)C[C@H](Cc2ccccc2)NC(=O)[C@H](CCCCNC(=O)COCCOCCNC(=O)COCCOCCNC(=O)CC[C@H](NC(=O)CCCCCCCCCCCCCCCCC(=O)O)C(=O)O)NC1=O` [Compd 47, TriF_Butyric_Acid-[Tet1]-T-H-[Dpa]-P-[Cys]-I-[Lys(1PEG2_1PEG2_IsoGlu_C18_Diacid)]-[bhPhe]-[(D)Lys]-[Cys]-NH2] (X4-[Ala(1H-tetrazol-5-yl)]TH[Dip]PCIK([AEEA-AEEA-γGlu-C18 diacid])[β3hF][dK]C-NH2; disulfide 6-11) were 0.01 to 0.1 µM and 0.1 to 0.5 µM.
As for `CCCC(=O)N[C@@H](Cc1nn[nH]n1)C(=O)N[C@H](C(=O)N[C@@H](Cc1c[nH]cn1)C(=O)N[C@H](C(=O)N1CCC[C@H]1C(=O)N[C@H]1CSSC[C@@H](C(N)=O)NC(=O)[C@@H](CCCCN)NC(=O)C[C@H](Cc2ccccc2)NC(=O)[C@H](CCCCNC(=O)COCCOCCNC(=O)COCCOCCNC(=O)CC[C@H](NC(=O)CCCCCCCCCCCCCCCCC(=O)O)C(=O)O)NC(=O)[C@H]([C@@H](C)CC)NC1=O)C(c1ccccc1)c1ccccc1)[C@@H](C)O` [Compd 49, Butyric_Acid-[Tet1]-T-H-[Dpa]-P-[Cys]-I-[Lys(1PEG2_1PEG2_IsoGlu_C18_Diacid)]-[bhPhe]-[(D)Lys]-[Cys]-NH2], the DC50 at ferroportin [1] was 0.01 to 0.1 µM. Besides, the IC50 at ferroportin [2] was in the range of 0.01 to 0.1 µM.
As for `CC[C@H](C)[C@@H]1NC(=O)[C@@H](NC(=O)[C@@H]2CCCN2C(=O)[C@@H](NC(=O)[C@H](Cc2cncn2C)NC(=O)[C@@H](NC(=O)[C@H](CC2N=NN=N2)NC(=O)CC(C)C)[C@@H](C)O)C(c2ccccc2)c2ccccc2)CSSC[C@@H](C(N)=O)NC(=O)[C@@H](CCCCN)NC(=O)C[C@H](Cc2ccccc2)NC(=O)[C@H](CCCCNC(=O)COCCOCCNC(=O)COCCOCCNC(=O)CC[C@H](NC(=O)CCCCCCCCCCCCCCCCC(=O)O)C(=O)O)NC1=O` [Compd 8, Isovaleric Acid-[Tet1]-T-[His_3Me]-[Dpa]-P-[Cys]-I-[Lys(1PEG2_1PEG2_IsoGlu_C18_Diacid)]-[bhPhe]-[(D)Lys]-[Cys]-NH2], the DC50 at ferroportin [1] was in the range of 0.01 to 0.1 µM. Besides, at ferroportin [2], the half-maximal inhibitory concentration (IC50) fell in the range of 0.1 to 0.5 µM.
On to `CC[C@H](C)[C@@H]1NC(=O)[C@@H](NC(=O)[C@@H]2CCCN2C(=O)[C@@H](NC(=O)[C@H](Cc2c[nH]cn2)NC(=O)[C@@H](NC(=O)[C@H](Cc2nn[nH]n2)NC(=O)C(C)(C)Br)[C@@H](C)O)C(c2ccccc2)c2ccccc2)CSSC[C@@H](C(N)=O)NC(=O)[C@@H](CCCCN)NC(=O)C[C@H](Cc2ccccc2)NC(=O)[C@H](CCCCNC(=O)COCCOCCNC(=O)COCCOCCNC(=O)CC[C@H](NC(=O)CCCCCCCCCCCCCCCCC(=O)O)C(=O)O)NC1=O` [Compd 46, Propanoic_Acid_2Me2Br-[Tet1]-T-H-[Dpa]-P-[Cys]-I-[Lys(1PEG2_1PEG2_IsoGlu_C18_Diacid)]-[bhPhe]-[(D)Lys]-[Cys]-NH2], for which the DC50 at ferroportin [1] was 0.01 to 0.1 µM. Besides, the IC50 at ferroportin [2] was in the range of 0.01 to 0.1 µM.
For `CC[C@H](C)[C@@H]1NC(=O)[C@@H](NC(=O)[C@@H]2CCCN2C(=O)[C@@H](NC(=O)[C@H](Cc2c[nH]cn2)NC(=O)[C@@H](NC(=O)[C@H](Cc2nn[nH]n2)NC(=O)CC(C)C)[C@@H](C)O)C(c2ccccc2)c2ccccc2)CSSC[C@@H](C(N)=O)NC(=O)[C@@H](CCCCN)NC(=O)C[C@H](Cc2ccccc2)NC(=O)[C@H](CCCCNC(=O)COCCOCCNC(=O)COCCOCCNC(=O)CC[C@H](NC(=O)CCCCCCCCCCCCCCCCC(=O)O)C(=O)O)NC1=O` [Compd 40, Isovaleric Acid-[Tet1]-T-H-[Dpa]-P-[Cys]-I-[Lys(1PEG2_1PEG2_IsoGlu_C18_Diacid)]-[bhPhe]-[(D)Lys]-[Cys]-NH2] (Isovaleryl-[Ala(1H-tetrazol-5-yl)]TH[Dip]PCIK([AEEA-AEEA-γGlu-C18 diacid])[β3hF][dK]C-NH2; disulfide 6-11), the DC50 at ferroportin [1] lay within 0.01 to 0.1 µM. Also, at ferroportin [2], the IC50 lay within 0.01 to 0.1 µM.
Regarding `CC[C@H](C)[C@@H]1NC(=O)[C@@H](NC(=O)[C@@H]2CCCN2C(=O)[C@@H](NC(=O)[C@H](Cc2cnc[nH]2)NC(=O)[C@@H](NC(=O)[C@H](CC2N=NN=N2)NC(=O)CC(C)C)[C@@H](C)O)C(c2ccccc2)c2ccccc2)CSSC[C@@H](C(N)=O)NC(=O)[C@@H](CCCCN)NC(=O)C[C@H](Cc2ccccc2)NC(=O)[C@H](CCCCNC(=O)COCCOCCNC(=O)COCCOCCNC(=O)CCCCCNC(=O)CCCCCCCCCCCCCCCCC(=O)O)NC1=O` [Compd 51, Isovaleric Acid-[Tet1]-T-H-[Dpa]-P-[Cys]-I-[Lys(1PEG2_1PEG2_Ahx_C18_Diacid)]-[bhPhe]-[(D)Lys]-[Cys]-NH2], the DC50 on ferroportin [1] fell in the range of 0.01 to 0.1 µM. Moreover, on ferroportin [2], the half-maximal inhibitory concentration (IC50) was in the range of 0.01 to 0.1 µM.
`CCCCCCCCCCCCCCCC(=O)NCCOCCOCCOCCOCCOCCOCCOCCOCCOCCOCCOCCOCCC(=O)NCCCC[C@@H]1NC(=O)[C@H]([C@@H](C)CC)NC(=O)[C@@H](NC(=O)[C@@H]2CCCN2C(=O)[C@@H](NC(=O)[C@H](Cc2c[nH]cn2)NC(=O)[C@@H](NC(=O)[C@H](Cc2nn[nH]n2)NC(=O)CC(C)C)[C@@H](C)O)C(c2ccccc2)c2ccccc2)CSSC[C@@H](C(N)=O)NC(=O)[C@@H](CCCCN)NC(=O)C[C@H](Cc2ccccc2)NC1=O` [Compd 1, Isovaleric Acid-[Tet1]-T-H-[Dpa]-P-[Cys]-I-[Lys(PEG12_Palm)]-[bhPhe]-[(D)Lys]-[Cys]-NH2] (Isovaleryl-[Ala(1H-tetrazol-5-yl)]TH[Dip]PCIK([PEG12-Palmitoyl])[β3hF][dK]C-NH2; disulfide 6-11): the DC50 at ferroportin [1] lay within 0.01 to 0.1 µM. In addition, at ferroportin [2], the IC50 lay within 0.001 to 0.01 µM.

(Values after patent publication US20240226225A1 (Protagonist Therapeutics, Inc., priority 2021, published 2024).)
